Assay results: US9688695B2, “Imidazothiadiazole and imidazopyrazine derivatives as protease activated receptor 4 (PAR4) inhibitors for treating platelet aggregation” (BRISTOL-MYERS SQUIBB COMPANY, priority 2012, dated 2017)

Assays:
PAR4 [1] = biological target: T1, PAR4 (Homo sapiens (Human), UniProt Q96RI0); test: Gamma thrombin induced platelet aggregation assay (PRP assay); assay type: cell-based; details: human platelet rich plasma, 96-well microplate
Method: Platelet aggregation can be monitored in a 96-well microplate aggregation assay format or using standard platelet aggregometer.
The platelet rich plasma was isolated by centrifugation at 170 g for 14 minutes.
The ability of the compounds of the current invention to inhibit platelet aggregation induced by gamma-thrombin was tested in a 96-well microplate aggregation assay format. Briefly, PRP or washed platelet suspension (100 μl) was pre-incubated for 5 minutes at room temperature with varying concentrations of compounds. Aggregation was initiated by ˜10-50 nM gamma thrombin (Haematologic Technologies, Essex Junction, Vt.), which was titrated daily to achieve 80% platelet aggregation. Refludan at 1 U/mL (Berlex, Montville, N.J.) was added to the gamma thrombin sample to prevent PAR1 activation induced by residual alpha-thrombin contamination. The plate was then placed into a 37° C. Molecular Devices (Sunnyvale, Calif.) SPECTRAMAX® Plus Plate Reader. […] The plate also included an untreated control sample which served as ODmax, while buffer containing no platelets was the ODmin. Platelet aggregation was determined by subtracting the ODmax from the ODmin for the 100% aggregation value. In experimental samples, the observed transmission was subtracted from the minimum value and then compared to the 100% aggregation value to determine the percentage aggregation. IC50 values are determined using Excel Fit software.

PAR4 [2] = biological target: T1, PAR4; test: FLIPR assay in PAR4-expressing HEK293 cells (PAR4 antagonist activity, calcium mobilization); assay type: cell-based; details: H-Ala-Phe(4-F)-Pro-Gly-Trp-Leu-Val-Lys-Asn-Gly-NH2-induced calcium mobilization
How it was run: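 HEK293 EBNA cells stably expressing human PAR4 (also endogenous PAR1) preincubated 30 min at room temperature with compound in HBSS/10 mM HEPES, 0.67% DMSO final. PAR4 agonist peptide then added and intracellular calcium mobilization monitored by fluorescence.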

PAR1 = PAR1 (Homo sapiens (Human), UniProt P25116); details: ACS patients, phase III; cited from earlier work
PAR1, sequence (P25116 22-425): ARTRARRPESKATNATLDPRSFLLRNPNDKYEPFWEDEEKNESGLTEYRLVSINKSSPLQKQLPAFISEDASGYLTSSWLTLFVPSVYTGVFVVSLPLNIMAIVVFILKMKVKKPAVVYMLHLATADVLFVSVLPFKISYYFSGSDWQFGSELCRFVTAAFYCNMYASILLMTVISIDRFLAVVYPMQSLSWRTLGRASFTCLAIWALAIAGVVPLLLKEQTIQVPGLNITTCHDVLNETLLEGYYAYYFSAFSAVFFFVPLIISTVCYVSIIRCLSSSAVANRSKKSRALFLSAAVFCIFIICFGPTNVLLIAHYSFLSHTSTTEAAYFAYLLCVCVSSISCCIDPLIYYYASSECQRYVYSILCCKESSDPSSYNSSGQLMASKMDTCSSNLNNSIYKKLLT

T1 sequence (Q96RI0 18-385): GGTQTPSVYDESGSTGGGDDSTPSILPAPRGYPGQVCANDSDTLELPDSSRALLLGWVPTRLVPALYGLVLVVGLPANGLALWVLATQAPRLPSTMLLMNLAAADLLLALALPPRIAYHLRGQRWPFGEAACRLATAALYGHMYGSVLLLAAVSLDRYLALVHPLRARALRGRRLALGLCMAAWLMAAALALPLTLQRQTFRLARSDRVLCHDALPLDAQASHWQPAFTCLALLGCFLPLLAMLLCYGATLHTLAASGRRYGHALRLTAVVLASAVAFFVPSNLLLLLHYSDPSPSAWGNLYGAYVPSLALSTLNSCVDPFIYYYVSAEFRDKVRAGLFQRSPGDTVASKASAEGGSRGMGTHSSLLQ

For `CCC(F)(c1nc(COc2cc(OC)cc3oc(-c4cn5nc(OC)sc5n4)cc23)cs1)C(F)(F)F` (centres unmarked) [Example 139], the IC50 (PAR4 [1]) was 26 nM and the EC50 (PAR4 [2]) was 0.41 nM.
For `CCC(F)(CC)c1nc(COc2cc(OC)cc3oc(-c4cn5nc(OC)sc5n4)cc23)cs1` [Example 141], the IC50 (PAR4 [1]) was 24 nM and the EC50 (PAR4 [2]) was 0.47 nM.
With `COc1cc(OCc2csc(C(O)(c3ccc(Cl)cc3)C(F)(F)F)n2)c2cc(-c3cn4nc(OC)sc4n3)oc2c1` (centres unmarked) [Example 145] the IC50 (PAR4 [1]) was 29 nM and the EC50 (PAR4 [2]) was 0.45 nM.
Work on `COc1cc(OCc2csc(C3(O)CCC(C(=O)N4CCCC4)CC3)n2)c2cc(-c3cn4nc(OC)sc4n3)oc2c1` (centres unmarked) [Example 151, (4-Hydroxy-4-(4-(((6-methoxy-2-(2-methoxyimidazo[2,1-b][1,3,4]thiadiazol-6-yl)benzofuran-4-yl)oxy)methyl)thiazol-2-yl)cyclohexyl)(pyrrolidin-1-yl)methanone] yielded an IC50 (PAR4 [1]) of 26 nM and an EC50 (PAR4 [2]) of 0.84 nM.
`COc1cc(OCc2csc(C3(O)CCC(C(=O)N(C)CC#N)CC3)n2)c2cc(-c3cn4nc(OC)sc4n3)oc2c1` (centres unmarked) [Example 152, N-(Cyanomethyl)-4-hydroxy-4-(4-(((6-methoxy-2-(2-methoxyimidazo[2,1-b][1,3,4]thiadiazol-6-yl)benzofuran-4-yl)oxy)methyl)thiazol-2-yl)-N-methylcyclohexanecarboxamide] gave an IC50 (PAR4 [1]) of 28 nM and an EC50 (PAR4 [2]) of 0.68 nM.
Work on `COc1cc(OCc2csc(C3(c4ccc(C(=O)N(C)C)cc4)CCOCC3)n2)c2cc(-c3cn4nc(OC)sc4n3)oc2c1` [Example 161, 4-(4-(4-(((6-Methoxy-2-(2-methoxyimidazo[2,1-b][1,3,4]thiadiazol-6-yl)benzofuran-4-yl)oxy)methyl)thiazol-2-yl)tetrahydro-2H-pyran-4-yl)-N,N-dimethylbenzamide] yielded an IC50 (PAR4 [1]) of 27 nM and an EC50 (PAR4 [2]) of 0.69 nM.
With `COc1cc(OCc2csc(-c3ccccc3)n2)c2cc(-c3cn4nc([C@H](C)F)sc4n3)oc2c1` [Example 192, (S)-2-(1-Fluoroethyl)-6-(6-methoxy-4-((2-phenylthiazol-4-yl)methoxy)benzofuran-2-yl)imidazo[2,1-b][1,3,4]thiadiazole] the IC50 (PAR4 [1]) was 28 nM and the EC50 (PAR4 [2]) was 1.9 nM.
`CC(F)(F)c1nn2cc(-c3cc4c(OCc5csc(-c6ccccc6)n5)nccc4o3)nc2s1` [Example 202, 2-(2-(1,1-Difluoroethyl)imidazo[2,1-b][1,3,4]thiadiazol-6-yl)-4-((2-phenylthiazol-4-yl)methoxy)furo[3,2-c]pyridine] gave an IC50 (PAR4 [1]) of over 3000 nM and an EC50 (PAR4 [2]) of 43 nM.
`COc1cc(OCc2csc(Br)n2)c2cc(-c3cn4nc(C)ccc4n3)oc2c1` [Example 205, 2-Bromo-4-(((6-methoxy-2-(6-methylimidazo[1,2-b]pyridazin-2-yl)benzofuran-4-yl)oxy)methyl)thiazole] gave an IC50 (PAR4 [1]) of 2380 nM and an EC50 (PAR4 [2]) of 3.5 nM.
With `COc1cc(OCc2csc(-c3ccc(Cl)cc3)n2)c2cc(-c3cn4nc(C)ccc4n3)oc2c1` [Example 209, 2-(4-Chlorophenyl)-4-(((6-methoxy-2-(6-methylimidazo[1,2-b]pyridazin-2-yl)benzofuran-4-yl)oxy)methyl)thiazole] the IC50 (PAR4 [1]) was 23 nM and the EC50 (PAR4 [2]) was 1.2 nM.
With `COc1cc(OCc2csc(-c3ccc4c(c3)OCO4)n2)c2cc(-c3cn4nc(C)ccc4n3)oc2c1` [Example 219] the IC50 (PAR4 [1]) was 25 nM and the EC50 (PAR4 [2]) was 1 nM.
For `COc1cc(OCc2csc(N3CCN(CCO)CC3)n2)c2cc(-c3cn4nc(C)ccc4n3)oc2c1` [Example 243], the IC50 (PAR4 [1]) was over 3000 nM and the EC50 (PAR4 [2]) was 32 nM.
Compound `COc1cc(OCc2csc(NCCN3CCOCC3)n2)c2cc(-c3cn4nc(C)ccc4n3)oc2c1` [Example 244] has an IC50 (PAR4 [1]) of over 3000 nM and an EC50 (PAR4 [2]) of 909 nM.
With `COc1cc(OCc2csc(NCc3cccnc3)n2)c2cc(-c3cn4nc(C)ccc4n3)oc2c1` [Example 245] the IC50 (PAR4 [1]) was 3130 nM and the EC50 (PAR4 [2]) was 5.5 nM.
For `COc1cc(OCc2csc(N(C)CCO)n2)c2cc(-c3cn4nc(C)ccc4n3)oc2c1` [Example 249], the IC50 (PAR4 [1]) was over 3000 nM and the EC50 (PAR4 [2]) was 15 nM.
For `COc1cc(OCc2csc(NCCCN3CCCC3=O)n2)c2cc(-c3cn4nc(C)ccc4n3)oc2c1` [Example 254], the IC50 (PAR4 [1]) was over 3000 nM and the EC50 (PAR4 [2]) was 19 nM.
`COc1cc(OCc2csc(NCC3CCCO3)n2)c2cc(-c3cn4nc(C)ccc4n3)oc2c1` (centres unmarked) [Example 256] gave an IC50 (PAR4 [1]) of over 3000 nM and an EC50 (PAR4 [2]) of 7.8 nM.
`COc1cc(OCc2csc(N3CCC3)n2)c2cc(-c3cn4nc(C)ccc4n3)oc2c1` [Example 257] gave an IC50 (PAR4 [1]) of over 3000 nM and an EC50 (PAR4 [2]) of 7.5 nM.
Work on `COc1cc(OCc2csc(Nc3ccc4[nH]ccc4c3)n2)c2cc(-c3cn4nc(C)ccc4n3)oc2c1` [Example 261] yielded an IC50 (PAR4 [1]) of over 3000 nM and an EC50 (PAR4 [2]) of 39 nM.
Compound `COc1cc(OCc2csc(Nc3cc(C)cc(C)n3)n2)c2cc(-c3cn4nc(C)ccc4n3)oc2c1` [Example 264] has an IC50 (PAR4 [1]) of over 3000 nM and an EC50 (PAR4 [2]) of 207 nM.
`COc1cc(OCc2csc(Nc3cc(F)ccc3F)n2)c2cc(-c3cn4nc(C)ccc4n3)oc2c1` [Example 265] gave an IC50 (PAR4 [1]) of over 3000 nM and an EC50 (PAR4 [2]) of 48 nM.
`COc1cc(OCc2csc(Nc3cc(C)ccc3F)n2)c2cc(-c3cn4nc(C)ccc4n3)oc2c1` [Example 266] gave an IC50 (PAR4 [1]) of over 3000 nM and an EC50 (PAR4 [2]) of 16 nM.
`COc1cc(OCc2csc(N3CCN(c4cccc(Cl)c4)CC3)n2)c2cc(-c3cn4nc(C)ccc4n3)oc2c1` [Example 268] showed an IC50 (PAR4 [1]) of 2360 nM and an EC50 (PAR4 [2]) of 1.7 nM.
For `COc1cc(OCc2csc(N3CCC(N4CCOCC4)CC3)n2)c2cc(-c3cn4nc(C)ccc4n3)oc2c1` [Example 273], the IC50 (PAR4 [1]) was over 3000 nM and the EC50 (PAR4 [2]) was 53 nM.
With `COc1cc(OCc2csc(N3CCC[C@@H]3C)n2)c2cc(-c3cn4nc(C)ccc4n3)oc2c1` [Example 274] the IC50 (PAR4 [1]) was over 3000 nM and the EC50 (PAR4 [2]) was 3.4 nM.
Compound `COc1cc(OCc2csc(N3CCC[C@H]3C)n2)c2cc(-c3cn4nc(C)ccc4n3)oc2c1` [Example 275] has an IC50 (PAR4 [1]) of 2630 nM and an EC50 (PAR4 [2]) of 4.2 nM.
Compound `COc1cc(OCc2csc(N3CCN(C)C(C)C3)n2)c2cc(-c3cn4nc(C)ccc4n3)oc2c1` (centres unmarked) [Example 276] has an IC50 (PAR4 [1]) of over 3000 nM and an EC50 (PAR4 [2]) of 24 nM.
Compound `COc1cc(OCc2csc(N(C)C)n2)c2cc(-c3cn4nc(C)ccc4n3)oc2c1` [Example 279] has an IC50 (PAR4 [1]) of over 3000 nM and an EC50 (PAR4 [2]) of 7.3 nM.
Compound `COc1cc(OCc2csc(Nc3ccc4scnc4c3)n2)c2cc(-c3cn4nc(C)ccc4n3)oc2c1` [Example 281] has an IC50 (PAR4 [1]) of over 3000 nM and an EC50 (PAR4 [2]) of 0.6 nM.
For `COc1cc(OCc2csc(Nc3ccc(F)c(C)n3)n2)c2cc(-c3cn4nc(C)ccc4n3)oc2c1` [Example 282], the IC50 (PAR4 [1]) was over 3000 nM and the EC50 (PAR4 [2]) was 3480 nM.
Compound `COc1cc(OCc2csc(N3CCN(c4ccc(C)cn4)CC3)n2)c2cc(-c3cn4nc(C)ccc4n3)oc2c1` [Example 285] has an IC50 (PAR4 [1]) of 2340 nM and an EC50 (PAR4 [2]) of 2.9 nM.
`COc1cc(OCc2csc(-c3ccc(C(=O)NCC(F)(F)F)cc3)n2)c2cc(-c3cn4nc(OC)sc4n3)oc2c1` [Example 305] showed an IC50 (PAR4 [1]) of 2 nM and an EC50 (PAR4 [2]) of 1 nM.
In the case of `COc1cc(OCc2csc(-c3ccc(C(=O)N(C)CCC#N)cc3)n2)c2cc(-c3cn4nc(OC)sc4n3)oc2c1` [Example 311], the IC50 (PAR4 [1]) is reported as 2 nM and the EC50 (PAR4 [2]) is reported as 0.65 nM.
In the case of `CCOC(=O)N[C@@H]1CC[C@@H]2[C@@H](C1)C[C@H]1C(=O)O[C@H](C)[C@H]1[C@H]2/C=C/c1ccc(-c2cccc(F)c2)cn1` [vorapaxar], the cardiovascular events (PAR1) is given as “did not significantly reduce cardiovascular events” and the “risk of major bleeding” value (PAR1) is given as “significantly increased the risk of major bleeding”.
